Assay results taken from patent US12012408B2, “Purine compounds and method for the treatment of cancer” (THE ROYAL INSTITUTION FOR THE ADVANCEMENT OF …, priority 2018, dated 2024).

Experiments:
[1] = system: 4T1 cells (triple-negative breast carcinoma); assay: In vivo orthotopic allograft model of breast cancer; set-up: species or system BALB/c mice
Protocol: All experiments were carried out according to protocol number 4101 of the McGill University Animal Care Committee. Mouse mammary carcinoma 4T1 cells (1×10^6 cells/each mouse) were transplanted into the mammary fat pad of BALB/c mice. […] Tumor size was measured using a caliper, and tumor volume was calculated as […] (length×width2). Mice were sacrificed 40 days after transplanting. Tumor tissues were isolated and fixed in 10% formalin. The lungs were fixed in 10% Bouin's fixative and lung metastatic nodules on the surface were counted using a stereomicroscope (Optimax; Leica).

[2] = system: MDA-MB-231 and BT-20 cells; assay: MTT assay (short-term cell viability); assay type: cell-based
Protocol: The short-term effects of SLLN-15 on tumor cell growth were assessed using the 3-(4,5-dimethylthiazol-2-yl)-2,5-diphenylte-trazolium bromide (MTT; Sigma) assay. Cells were seeded at a density of 5000 cells/well in a 96-well plate and treated with SLLN-15 as indicated concentration or DMSO for 24 hours. MTT solution (5 mg/ml in RPMI 1640 medium) was added (20 μl/well), and plates were incubated for 4 hours in dark at 37° C., then the purple formazan crystals were then dissolved in 100 μl MTT solvent (4 mM HCl and 0.1% NP-40 in isopropanol). The plates were read on FLUOstar OPTIMA microplate reader (BMG Labtech, Ortenberg, Germany) at 570 nm. Assays were performed in triplicate on three independent experiments.

[3] = system: autophagy (LC3) in MDA-MB-231 and BT-20 cells; assay: Autophagy markers: LC3 western blot, LC3 puncta immunofluorescence, mCherry-GFP-LC3 flux; assay type: cell-based
Protocol: (§1) Sub-confluent cells were washed with PBS, lysed in RIPA buffer (50 mM Tris-HCl at pH7.5, 150 mM sodium chloride, 1% tritonX-100, 0.1% SDS, 2 mM EDTA and 25 mM sodium fluoride) supplemented with 1 mM PMSF and protease inhibitor cocktail (Roche) for 10 min on ice and centrifuged (13,000 rpm at 4° C. for 20 min) to separate cell lysate. Cell lysate (50 μg protein, as measured by the Bradford protein assay) was then added with SDS sample buffer (Tris at pH 6.8, 20% glycerol, 5% SDS, bromophenol blue and β-mercaptoethanol) and boiled for 5 min. Samples were then resolved through 13% SDS-PAGE gels, transferred to nitrocellulose membrane, blotted with specific first antibodies at different dilution in cold room overnight, and then amplified with horseradish peroxidase-conjugated secondary antibodies for 1 hour in room temperature and enhanced by chemiluminescence detection system.
Cells were grown on 18-mm cover glass, placed in 6-well culture plate for 24 hours, rinsed in PBS, fixed with 4% paraformaldehyde/PBS for 10 min, washed twice in PBS with 0.2% TritonX-100, blocked in PBS with 0.2% Triton X-100 containing 1% BSA (Bioshop) and incubated with primary antibodies overnight at 4° C. (all in 1/100 diluted in blocking solution). The cells were washed with PBS containing 0.2% TritonX-100 and subsequently incubated with Alexa Fluor 488-labelled, Alexa Fluor 594-labelled, or Alexa Fluor 647-labelled secondary antibodies (all were used at 1/500 dilution in blocking solution) for 1 hour in room temperature. The nuclei were stained with DAPI (0.1 μg/ml) for 5 min before mounted with aqueous mounting medium. Cells were imaged using WaveFX spinning disk confocal microscope system (Quorum Technologies INC.). Images shown are representative of three independent experiments.
In order to determine whether SLLN-15 affects autophagy in triple-negative breast cancer cells, we first investigated its effect on the formation of autophagosomes by detecting the conversion of LC3-I to lipidated LC3-II and the distribution of endogenous LC3 puncta, both classic markers of autophagy regulation (Klionsky D J et al. Guidelines for the use and interpretation of assays for monitoring autophagy (3rd edition) Autophagy 2016; 12:1-222). […] In order to visualize the induction of autophagy by SLLN-15, we then used transmission electron microscopy.
Distinguishing between autophagy inducers and inhibitors is a delicate task, since both cause a build-up of LC3-II and LC3-positive puncta (Mizushima N, et al. Methods in mammalian autophagy research Cell 2010; 140:313-26). Therefore, to further determine the role of SLLN-15 on autophagy, we next investigated its impact on autophagic flux using a tandem monomeric mCherry-GFP-tagged LC3. […] SLLN-15-induced autophagic flux was further examined in the presence or absence of the autophagosome-lysosome fusion inhibitor, chloroquine (CQ) (Mizushima N, et al. Methods in mammalian autophagy research Cell 2010; 140:313-26). […] This observation was further confirmed by detecting the number of LC3 puncta in SLLN-15-treated cells, as compared to SLLN-15 combined with CQ (FIG. 3D).

[4] = system: Akt/mTOR pathway in MDA-MB-231 and BT-20 cells; assay: Western blot of the Akt/mTOR pathway; assay type: cell-based; details: FIG. 4A
Protocol: as §1
The PI3K/Akt/mTOR pathway is a well-established pathway that is frequently activated in cancer cells and acts as a key negative regulator of autophagy (Schmelzle T et al. TOR, a central controller of cell growth Cell 2000; 103:253-62; Shi J et al. IL10 inhibits starvation-induced autophagy in hypertrophic scar fibroblasts via cross talk between the IL10-IL10R-STAT3 and IL10-AKT-mTOR pathways Cell Death Dis 2016; 7:e2133). […]

[5] = system: Aurora A, Aurora B, Aurora C in MDA-MB-231 and BT-20 cells; assay: Western blot of cellular Aurora kinase phosphorylation and expression; assay type: cell-based
Protocol: as §1
To further evaluate cellular Aurora kinase inhibitory activity of SLLN-15, western blot analysis was carried out in both MDA-MB-231 and BT-20 cell lines. […] To gain further insight into the mechanism underlying the regulation of Aurora A and B by SLLN-15, we next examined whether Aurora A and B were degraded via the proteasome pathway.

c1nc2nc(Nc3ccc(N4CC[Se]CC4)cc3)nc(N[C@H]3CC[Se]C3)c2[nH]1 [SLLN-15]
tumor volumes ([1]; 30 mg/kg given PO, compared to vehicle, FIG. 1D): reduced | tumor weights ([1]; 30 mg/kg given PO, compared to vehicle, FIG. 1E): reduced | tumor allograft growth rate ([1]; 30 mg/kg given PO, compared to vehicle, FIGS. 1D and E): grew at a slower rate | number of lung metastases ([1]; compared with vehicle-treated animals, FIG. 1F): significant inhibition of the number of lung metastases | short-term and long-term cell viability (MTT and clonogenic assay) ([2]; SLLN-15 in presence of autophagy inhibitor 3-MA, FIGS. 5D and E): rescued both short-term and long-term cell viability | cell viability (MTT) ([2]; time-dependent, SLLN-15 compared with vorinostat, FIG. 6A): markedly decreased cell viability | overall cell viability (MTT) ([2]; treatment for 24 hours, dose-dependent, FIG. 1C): markedly decreased overall cell viability | expression level of p62/SQSTM1, Beclin1, Atg5 and Atg7 ([3]; FIG. S2): no changes in their expression levels were observed | autophagic flux, mCherry-GFP-tagged LC3 ([3]; MDA-MB-231 and BT-20 cells, FIGS. 3A and B): increased formation of yellow fluorescence (autophagosomes) and red fluorescence (autophagolysosomes) | LC3-II/LC3-I ratio ([3]; SLLN-15 combined with chloroquine (CQ), compared to SLLN-15 alone, FIG. 3C): enhanced LC3-II/LC3-I ratio | LC3-II/I ratio ([3]; combination of SLLN-15 with 3-methyladenine (3-MA), FIG. 5C): significantly decreases LC3-II/I ratio | LC3-II conversion and LC3 puncta ([3]; dose-dependent, FIGS. 2A and B): increased LC3-II conversion and LC3 puncta | phosphorylation levels of Akt, mTOR, p70S6K, S6 and 4EBP1 [4]: decreased phosphorylation levels | phosphorylation of Aurora A at Thr288, Aurora B at Thr232, Aurora C at Thr198 ([5]; 1 μM, FIG. 7A): strongly inhibited phosphorylation of both Aurora A at Thr288 and B at Thr232 but not Aurora C at Thr198 | expression of Aurora A over time ([5]; BT-20 cells, 6 hours post-treatment, FIG. 7C): downregulated the expression of Aurora A at earlier time points | Aurora A and Aurora B expression ([5]; dose-dependent, FIG. 7A): decreased both Aurora A and Aurora B expression
